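Dose response: 5 concentrations. Exposure: 48 h. Format: 96-well plates. Endpoint: linear interpolation; highest concentration if not reached. GI50 is the concentration that inhibits growth by half.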 The source made the active and inactive calls. Rule as the data show it: active = GI50 up to about 1.1 µM and inactive = higher.
Tests used:
Test in all cases: growth of human tumour cells (NCI), 48 h
SF-539 = test system: SF-539
MDA-N = test system: MDA-N
T47D = test system: T47D
MDA-MB-231 = test system: MDA-MB-231
SF-295 = test system: SF-295
HOP-62 = test system: HOP-62
RXF 393 = test system: RXF 393
NCI-H460 = test system: NCI-H460
MDA-MB-435 = test system: MDA-MB-435
UACC-257 = test system: UACC-257
COLO 205 = test system: COLO 205
U-251 = test system: U-251
SK-OV-3 = test system: SK-OV-3
KM12 = test system: KM12
SK-MEL-2 = test system: SK-MEL-2
A498 = test system: A498
SR = test system: SR
786-0 = test system: 786-0
IGROV-1 = test system: IGROV-1
MOLT-4 = test system: MOLT-4
CAKI-1 = test system: CAKI-1
HCC 2998 = test system: HCC 2998
Hs-578T = test system: Hs-578T
UACC-62 = test system: UACC-62
RPMI-8226 = test system: RPMI-8226
ACHN = test system: ACHN
SF-268 = test system: SF-268
SK-MEL-28 = test system: SK-MEL-28
OVCAR-4 = test system: OVCAR-4
HT-29 = test system: HT-29
HL-60 = test system: HL-60
HCT-116 = test system: HCT-116
DU-145 = test system: DU-145
PC-3 = test system: PC-3
Malme-3M = test system: Malme-3M
TK-10 = test system: TK-10
NCI-H226 = test system: NCI-H226
HCT-15 = test system: HCT-15
OVCAR-5 = test system: OVCAR-5
SNB-19 = test system: SNB-19
K562 = test system: K562
CCRF-CEM = test system: CCRF-CEM
SN12C = test system: SN12C
SNB-75 = test system: SNB-75
NCI-H522 = test system: NCI-H522
SW-620 = test system: SW-620
A549 = test system: A549
OVCAR-8 = test system: OVCAR-8
SK-MEL-5 = test system: SK-MEL-5
EKVX = test system: EKVX
HOP-92 = test system: HOP-92
NCI-H23 = test system: NCI-H23
NCI/ADR-RES = test system: NCI/ADR-RES
LOX IMVI = test system: LOX IMVI
UO-31 = test system: UO-31

SMILES: S=C1/C(=N/c2ccccc2)N(C2CCCCC2)/C(=N\C2CCCCC2)N1c1ccccc1
- GI50 (SF-539): 1.18 µM (inactive)
- GI50 (MDA-N): > 100 µM (inactive)
- GI50 (T47D): 82.6 µM (inactive)
- GI50 (MDA-MB-231): > 100 µM (inactive)
- GI50 (SF-295): 36 µM (inactive)
- GI50 (HOP-62): 51.8 µM (inactive)
- GI50 (RXF 393): > 100 µM (inactive)
- GI50 (NCI-H460): 38 µM (inactive)
- GI50 (MDA-MB-435): > 100 µM (inactive)
- GI50 (UACC-257): > 100 µM (inactive)
- GI50 (COLO 205): 47.6 µM (inactive)
- GI50 (U-251): 32.2 µM (inactive)
- GI50 (SK-OV-3): > 100 µM (inactive)
- GI50 (KM12): 42.7 µM (inactive)
- GI50 (SK-MEL-2): > 100 µM (inactive)
- GI50 (A498): > 100 µM (inactive)
- GI50 (SR): > 100 µM (inactive)
- GI50 (786-0): 75.7 µM (inactive)
- GI50 (IGROV-1): 87.5 µM (inactive)
- GI50 (MOLT-4): > 100 µM (inactive)
- GI50 (CAKI-1): > 100 µM (inactive)
- GI50 (HCC 2998): 86.5 µM (inactive)
- GI50 (Hs-578T): > 100 µM (inactive)
- GI50 (UACC-62): 76.2 µM (inactive)
- GI50 (RPMI-8226): > 100 µM (inactive)
- GI50 (ACHN): > 100 µM (inactive)
- GI50 (SF-268): > 100 µM (inactive)
- GI50 (SK-MEL-28): > 100 µM (inactive)
- GI50 (OVCAR-4): > 100 µM (inactive)
- GI50 (HT-29): 78.5 µM (inactive)
- GI50 (HL-60): > 100 µM (inactive)
- GI50 (HCT-116): 68.9 µM (inactive)
- GI50 (DU-145): > 100 µM (inactive)
- GI50 (PC-3): 63.8 µM (inactive)
- GI50 (Malme-3M): > 100 µM (inactive)
- GI50 (TK-10): > 100 µM (inactive)
- GI50 (NCI-H226): > 100 µM (inactive)
- GI50 (HCT-15): > 100 µM
- GI50 (OVCAR-5): > 100 µM (inactive)
- GI50 (SNB-19): 47.2 µM (inactive)
- GI50 (K562): > 100 µM (inactive)
- GI50 (CCRF-CEM): > 100 µM (inactive)
- GI50 (SN12C): 47.8 µM (inactive)
- GI50 (SNB-75): > 100 µM (inactive)
- GI50 (NCI-H522): 6.73 µM (inactive)
- GI50 (SW-620): > 100 µM (inactive)
- GI50 (A549): 60 µM (inactive)
- GI50 (OVCAR-8): > 100 µM (inactive)
- GI50 (SK-MEL-5): > 100 µM (inactive)
- GI50 (EKVX): > 100 µM (inactive)
- GI50 (HOP-92): > 100 µM (inactive)
- GI50 (NCI-H23): > 100 µM (inactive)
- GI50 (NCI/ADR-RES): > 100 µM (inactive)
- GI50 (LOX IMVI): > 100 µM (inactive)
- GI50 (UO-31): > 100 µM (inactive)

SMILES: O=C1C(=O)N(C23CC4CC(CC(C4)C2)C3)C(=S)N1c1ccccc1
- GI50 (SF-539): > 100 µM (inactive)
- GI50 (MDA-N): > 100 µM (inactive)
- GI50 (T47D): > 100 µM (inactive)
- GI50 (MDA-MB-231): > 100 µM (inactive)
- GI50 (SF-295): 97.5 µM (inactive)
- GI50 (HOP-62): > 100 µM (inactive)
- GI50 (RXF 393): > 100 µM (inactive)
- GI50 (NCI-H460): 97.9 µM (inactive)
- GI50 (MDA-MB-435): > 100 µM (inactive)
- GI50 (UACC-257): 32.7 µM (inactive)
- GI50 (COLO 205): > 100 µM (inactive)
- GI50 (U-251): > 100 µM (inactive)
- GI50 (SK-OV-3): > 100 µM (inactive)
- GI50 (KM12): > 100 µM (inactive)
- GI50 (SK-MEL-2): 70.8 µM (inactive)
- GI50 (A498): > 100 µM (inactive)
- GI50 (SR): > 100 µM (inactive)
- GI50 (786-0): > 100 µM (inactive)
- GI50 (IGROV-1): > 100 µM (inactive)
- GI50 (MOLT-4): > 100 µM (inactive)
- GI50 (CAKI-1): > 100 µM (inactive)
- GI50 (HCC 2998): > 100 µM (inactive)
- GI50 (Hs-578T): > 100 µM (inactive)
- GI50 (UACC-62): > 100 µM (inactive)
- GI50 (RPMI-8226): > 100 µM (inactive)
- GI50 (ACHN): > 100 µM (inactive)
- GI50 (SF-268): > 100 µM (inactive)
- GI50 (SK-MEL-28): > 100 µM (inactive)
- GI50 (OVCAR-4): > 100 µM (inactive)
- GI50 (HT-29): > 100 µM (inactive)
- GI50 (HL-60): 42.8 µM (inactive)
- GI50 (HCT-116): 93.5 µM (inactive)
- GI50 (DU-145): > 100 µM (inactive)
- GI50 (PC-3): > 100 µM (inactive)
- GI50 (Malme-3M): > 100 µM (inactive)
- GI50 (TK-10): 58.9 µM (inactive)
- GI50 (NCI-H226): 60 µM (inactive)
- GI50 (HCT-15): > 100 µM
- GI50 (OVCAR-5): > 100 µM (inactive)
- GI50 (SNB-19): > 100 µM (inactive)
- GI50 (K562): > 100 µM (inactive)
- GI50 (CCRF-CEM): 29 µM (inactive)
- GI50 (SN12C): > 100 µM (inactive)
- GI50 (SNB-75): > 100 µM (inactive)
- GI50 (NCI-H522): 17.1 µM (inactive)
- GI50 (SW-620): > 100 µM (inactive)
- GI50 (A549): 65.5 µM (inactive)
- GI50 (OVCAR-8): 97.9 µM (inactive)
- GI50 (SK-MEL-5): 61.2 µM (inactive)
- GI50 (EKVX): 43.5 µM (inactive)
- GI50 (HOP-92): 30 µM (inactive)
- GI50 (NCI-H23): 49.1 µM (inactive)
- GI50 (NCI/ADR-RES): 66.2 µM (inactive)
- GI50 (LOX IMVI): > 100 µM (inactive)
- GI50 (UO-31): > 100 µM (inactive)

Source: ChEMBL document CHEMBL1201862, “PubChem BioAssay data set” (2004)
